Measured values: patent US20140357579A1, “SYNTHETIC PEPTIDE AMIDES AND DIMERS THEREOF” (priority 2006, published 2014)
Read-outs that look alike come from different tables or passages of the source. Square brackets hold non-standard residues; d marks the D form. Peptide text beside a SMILES is read from it. dOrn = NCCC[C@@H](N)C(=O)O; Inp = O=C(O)C1CCNCC1

Assays:
[1] = target: T1, mouse kappa opioid receptor (mKOR) (Mus musculus, UniProt P33534); assay: Inhibition of forskolin-stimulated cAMP production in R1.G1 cells (TR-FRET cAMP immunoassay); type: cell-based; settings: for EC50: inhibition of forskolin-stimulated cAMP, read-out: mKOR EC50
T1 construct: a mouse thymoma cell line that expresses only the kappa-opioid receptor and no other opioid receptor subtype; host or cells: R1.G1 mouse thymoma cells
T1 sequence (P33534 whole entry): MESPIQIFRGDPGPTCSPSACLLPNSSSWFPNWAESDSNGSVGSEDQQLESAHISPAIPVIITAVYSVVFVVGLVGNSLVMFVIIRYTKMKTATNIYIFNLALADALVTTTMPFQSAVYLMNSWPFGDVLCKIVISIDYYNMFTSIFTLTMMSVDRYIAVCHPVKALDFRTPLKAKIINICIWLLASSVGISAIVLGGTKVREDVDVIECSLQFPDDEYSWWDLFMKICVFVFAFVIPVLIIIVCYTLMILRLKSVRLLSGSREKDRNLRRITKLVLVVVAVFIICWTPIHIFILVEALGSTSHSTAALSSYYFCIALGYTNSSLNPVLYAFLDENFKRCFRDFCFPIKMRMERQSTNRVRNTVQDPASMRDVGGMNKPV

[2] = target: T2, human kappa opioid receptor (hKOR) (Homo sapiens, UniProt P41145); assay: NFAT-luciferase reporter assay in HEK-293 cells transfected with human kappa opioid receptor and chimeric G-protein; type: cell-based; settings: for EC50: transfected HEK-293 cells, luciferase reporter
T2 construct: expressed in transfected cells; host or cells: HEK-293 cells (ATCC), transient transfection with pcDNA3-hOPRK1
T2 sequence (P41145 whole entry): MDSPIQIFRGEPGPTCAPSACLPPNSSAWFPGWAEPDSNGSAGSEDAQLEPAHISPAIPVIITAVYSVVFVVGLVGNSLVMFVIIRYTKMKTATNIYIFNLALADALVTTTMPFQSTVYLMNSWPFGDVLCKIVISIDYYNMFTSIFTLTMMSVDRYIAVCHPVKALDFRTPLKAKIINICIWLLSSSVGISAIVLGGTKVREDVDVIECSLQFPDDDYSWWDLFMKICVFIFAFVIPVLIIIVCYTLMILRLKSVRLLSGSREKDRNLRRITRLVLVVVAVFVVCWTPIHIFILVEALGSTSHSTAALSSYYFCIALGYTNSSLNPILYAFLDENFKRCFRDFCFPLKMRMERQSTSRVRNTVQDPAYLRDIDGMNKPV

[3] = percent maximal activation compared to full induction by known kappa agonists
[4] = R1.G1 cells, read-out: mKOR Efficacy(%)
[5] = HEK293, percent maximal activation compared to full induction by known kappa agonists, read-out: hKOR Efficacy(%)

| Structure (SMILES) | mKOR Efficacy(%) ([1]; R1.G1 cells) | hKOR Efficacy(%) [2, 3] | EC50 ([2]; read-out: hKOR EC50) | Emax [2, 5] | also measured |
| --- | --- | --- | --- | --- | --- |
| CC(C)C[C@@H](NC(=O)[C@@H](Cc1ccccc1)NC(=O)[C@H](N)Cc1ccccc1)C(=O)N[C@H](CCCN)C(=O)N1CCNC(C(=O)O)C1 (stereo partly drawn) [Compound 8, D-Phe-D-Phe-D-Leu-D-Orn-[omega(D/L-piperazine-2-carboxylic acid)]-OH] | 102% | 93% | 0.16 nM |  |  |
| CC(C)C[C@@H](NC(=O)[C@@H](Cc1ccccc1)NC(=O)[C@H](N)Cc1ccccc1)C(=O)N[C@H](CCCN)C(=O)N1CCCN(C(=N)N)CC1 [Compound 16, D-Phe-D-Phe-D-Leu-D-Orn-[4-Amidinohomopiperazine amide]] |  |  | 0.12 nM | 90% | Emax [1, 4]: 99% |
| CC(C)C[C@@H](NC(=O)[C@@H](Cc1ccccc1)NC(=O)[C@H](N)Cc1ccccc1)C(=O)N[C@H](CCCN)C(=O)N1CCC(N2CCC[C@H]2C(N)=O)CC1 [Compound 14, D-Phe-D-Phe-D-Leu-D-Orn-[N-(4-piperidinyl)-L-proline]-NH2] | 96% |  | 0.21 nM | 105% |  |
| CC(C)C[C@@H](NC(=O)[C@@H](Cc1ccccc1)NC(=O)[C@H](N)Cc1ccccc1)C(=O)N[C@H](CCCCN)C(=O)N1CCN(S(=O)(=O)N(C)C)CC1 [Compound 30, D-Phe-D-Phe-D-Leu-D-Lys-[N,N-dimethylpiperazine-1-sulfonamide amide]] | 86% | 101% |  |  |  |
| CC(C)C[C@@H](NC(=O)[C@@H](Cc1ccccc1)NC(=O)[C@H](N)Cc1ccccc1)C(=O)N[C@H](CCCN)C(=O)NCCCC[C@H](NC(=O)[C@H](N)CCCN)C(=O)N1CCNCC1 [Compound 44] |  |  | 0.25 nM | 93% | EC50 ([1]; R1.G1 cells): 1300 pM; Emax [1, 4]: 91% |
| CC(C)C[C@@H](NC(=O)[C@H](N)Cc1ccccc1)C(=O)N[C@H](CCCN)C(=O)N[C@@H](CCCCNC(=O)[C@@H](CCCN)NC(=O)[C@@H](CC(C)C)NC(=O)[C@@H](Cc1ccccc1)NC(=O)[C@H](N)Cc1ccccc1)C(=O)O [Compound 41] | 100% | 89% |  |  | EC50 ([2]; hKOR EC50 (nM)): 0.2 nM |
| CC(C)C[C@@H](NC(=O)[C@@H](Cc1ccccc1)NC(=O)[C@H](N)Cc1ccccc1)C(=O)N[C@H](CCCN)C(=O)N1CCC(N)(C(=O)O)CC1 [Compound 6, D-Phe-D-Phe-D-Leu-D-Orn-[omega(4-Aminopiperidine-4-carboxylic acid)]-OH] | 100% | 107% | 0.17 nM |  |  |
| CC(C)C[C@@H](NC(=O)[C@H](N)Cc1ccccc1)C(=O)N[C@H](CCCN)C(=O)N[C@@H](CCCCNC(=O)[C@@H](CCCN)NC(=O)[C@@H](CC(C)C)NC(=O)[C@@H](Cc1ccccc1)NC(=O)[C@H](N)Cc1ccccc1)C(=O)O [Compound 40] |  |  |  |  | Emax ([1]; read-out: mKOR Efficacy(%), R1.G1 cells): 96%; Emax ([2]; HEK293, read-out: hKOR Efficacy(%), percent maximal activation compared to full induction by known kappa agonists): 83%; EC50 ([2]; hKOR EC50 (nM)): 0.26 nM |
| CC(C)C[C@@H](NC(=O)[C@@H](Cc1ccccc1)NC(=O)[C@H](N)Cc1ccccc1)C(=O)N[C@H](CCCN)C(=O)N1CCC(CC(=O)O)CC1 [Compound 2, D-Phe-D-Phe-D-Leu-D-Orn-[4-Carboxymethyl-piperidine]-OH] | 97% | 99% | 0.13 nM |  |  |
| CC(C)C[C@@H](NC(=O)[C@@H](Cc1ccccc1)NC(=O)[C@H](N)Cc1ccccc1)C(=O)N[C@H](CCCCN)C(=O)NCc1ccc2[nH]c(=O)[nH]c2c1 [Compound 37, D-Phe-D-Phe-D-Leu-D-Lys-[5-(aminomethyl)-1H-benzo[d]imidazol-2(3H)-one amide]] | 87% | 99% |  |  |  |
| CC(C)C[C@@H](NC(=O)[C@@H](Cc1ccccc1)NC(=O)[C@H](N)Cc1ccccc1)C(=O)N[C@H](CCCCN)C(=O)N1CCN(S(=O)(=O)c2ccccc2)CC1 [Compound 32, D-Phe-D-Phe-D-Leu-D-Lys-[1-(phenylsulfonyl)piperazine amide]] | 87% | 101% |  |  |  |
| CC(C)C[C@@H](NC(=O)[C@@H](Cc1ccccc1)NC(=O)[C@H](N)Cc1ccccc1)C(=O)N[C@H](CCCN)C(=O)N1CCC(C(=O)O)CC1 [Compound 9, D-Phe-D-Phe-D-Leu-D-Orn-[Isonipecotic acid]-OH] (H-[dF][dF][dL][dOrn][Inp]-OH; N-terminus assumed) | 92% |  | 0.39 nM | 134% |  |
| CC(C)C[C@@H](NC(=O)[C@@H](Cc1ccccc1)NC(=O)[C@H](N)Cc1ccccc1)C(=O)N[C@H](CCCN)C(=O)NCCN1CCN(CC(N)=O)CC1 [Compound 13, D-Phe-D-Phe-D-Leu-D-Orn-[4-(2-aminoethyl)-1-carboxymethyl-piperazine]-NH2] | 96% | 96% |  |  |  |
| CCN1CCCN(C(=O)[C@@H](CCCN)NC(=O)[C@@H](CC(C)C)NC(=O)[C@@H](Cc2ccccc2)NC(=O)[C@H](N)Cc2ccccc2)CC1 [Compound 18, D-Phe-D-Phe-D-Leu-D-Orn-[4-ethylhomopiperazine amide]] | 99% |  |  | 99% |  |
| CC(C)C[C@@H](NC(=O)[C@@H](Cc1ccccc1)NC(=O)[C@H](N)Cc1ccccc1)C(=O)N[C@H](CCCCN)C(=O)N1CCN(S(C)(=O)=O)CC1 [Compound 31, D-Phe-D-Phe-D-Leu-D-Lys-[1-(methylsulfonyl)piperazine amide]] | 82% | 100% |  |  |  |
| CC(C)C[C@@H](NC(=O)[C@@H](Cc1ccccc1)NC(=O)[C@H](N)Cc1ccccc1)C(=O)N[C@H](CCCN)C(=O)NCCCC[C@@H](NC(=O)[C@H](N)CCCN)C(=O)O [Compound 45] |  |  | 0.28 nM | 96% | EC50 ([1]; R1.G1 cells): 50 pM; Emax [1, 4]: 96% |
| CC(C)C[C@@H](NC(=O)[C@@H](Cc1ccccc1)NC(=O)[C@H](N)Cc1ccccc1)C(=O)N[C@H](CCCN)C(=O)N1CCC(CCCC(=O)O)CC1 [Compound 12, D-Phe-D-Phe-D-Leu-D-Orn-[4-(4-piperidinyl)-butanoic acid]-OH] | 100% |  | 0.3 nM | 99% |  |
| CNC(=N)N1CCCN(C(=O)[C@@H](CCCN)NC(=O)[C@@H](CC(C)C)NC(=O)[C@@H](Cc2ccccc2)NC(=O)[C@H](N)Cc2ccccc2)CC1 [Compound 19, D-Phe-D-Phe-D-Leu-D-Orn-[4-(N-methyl)amidinohomopiperazine amide]] | 101% |  | 0.21 nM | 93% |  |
| CC(C)C[C@@H](NC(=O)[C@@H](Cc1ccccc1)NC(=O)[C@H](N)Cc1ccccc1)C(=O)N[C@H](CCCN)C(=O)N1CCC(N2CCC[C@H]2C(=O)O)CC1 [Compound 10, D-Phe-D-Phe-D-Leu-D-Orn-[N-(4-piperidinyl)-L-proline]-OH] | 99% | 92% | 0.12 nM |  |  |
| CC(C)C[C@@H](NC(=O)[C@@H](Cc1ccccc1)NC(=O)[C@H](N)Cc1ccccc1)C(=O)N[C@H](CCCN)C(=O)N1CCCNCC1 [Compound 11, D-Phe-D-Phe-D-Leu-D-Orn-[homopiperazine amide]] | 100% |  | 0.12 nM | 90% |  |
| CC(C)C[C@@H](NC(=O)[C@@H](Cc1ccccc1)NC(=O)[C@H](N)Cc1ccccc1)C(=O)N[C@H](CCCCN)C(=O)N1CCN(c2cnccn2)CC1 [Compound 27, D-Phe-D-Phe-D-Leu-D-Lys-[2-(piperazin-1-yl)pyrazine amide]] | 85% | 100% |  |  |  |
